# Reference: US9890139B2, “CYP17 inhibitors/antiandrogens” (Orion Corporation, priority 2013, dated 2018)
# Read-outs that look alike come from different tables or passages of the source.
# Columns and labels:
# 17,20 lyase (CYP17) = molecular target: T1, 17,20 lyase (CYP17) (Homo sapiens, UniProt P05093); assay: 17,20 lyase (CYP17) inhibition, acetic acid release assay (AARA) on H295R cells; assay type: cell-based
# T1 construct: endogenous in cells; host or cells: H295R human adrenocortical carcinoma cells
# T1 sequence (P05093 1-508): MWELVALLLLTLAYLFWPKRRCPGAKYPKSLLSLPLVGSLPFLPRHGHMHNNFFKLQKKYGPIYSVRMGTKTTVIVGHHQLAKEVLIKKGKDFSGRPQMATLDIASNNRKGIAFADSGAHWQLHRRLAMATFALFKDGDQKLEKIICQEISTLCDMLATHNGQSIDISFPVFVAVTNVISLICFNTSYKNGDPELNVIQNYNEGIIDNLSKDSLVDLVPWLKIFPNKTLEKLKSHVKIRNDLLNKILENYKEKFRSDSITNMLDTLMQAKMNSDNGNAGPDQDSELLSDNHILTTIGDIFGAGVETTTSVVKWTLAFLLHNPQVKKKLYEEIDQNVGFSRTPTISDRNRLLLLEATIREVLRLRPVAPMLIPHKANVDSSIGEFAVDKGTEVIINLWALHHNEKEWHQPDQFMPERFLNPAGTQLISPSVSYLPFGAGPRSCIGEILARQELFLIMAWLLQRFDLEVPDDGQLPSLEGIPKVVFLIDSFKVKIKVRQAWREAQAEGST
# full-length human AR = molecular target: T2, full-length human AR (Homo sapiens, UniProt P10275); assay: AR antagonism, reporter gene assay in hAR/HEK293 cells; assay type: cell-based; conditions: HEK293 cells stably transfected with full-length human AR and androgen responsive luciferase reporter; co-treated with submaximal testosterone (usually 0.45 nM); 1% DMSO; triplicates
# T2 construct: expression vector encoding full-length human AR; expressed in transfected cells; host or cells: HEK293 (hAR/HEK293 cells)
# T2 sequence (P10275 1-920): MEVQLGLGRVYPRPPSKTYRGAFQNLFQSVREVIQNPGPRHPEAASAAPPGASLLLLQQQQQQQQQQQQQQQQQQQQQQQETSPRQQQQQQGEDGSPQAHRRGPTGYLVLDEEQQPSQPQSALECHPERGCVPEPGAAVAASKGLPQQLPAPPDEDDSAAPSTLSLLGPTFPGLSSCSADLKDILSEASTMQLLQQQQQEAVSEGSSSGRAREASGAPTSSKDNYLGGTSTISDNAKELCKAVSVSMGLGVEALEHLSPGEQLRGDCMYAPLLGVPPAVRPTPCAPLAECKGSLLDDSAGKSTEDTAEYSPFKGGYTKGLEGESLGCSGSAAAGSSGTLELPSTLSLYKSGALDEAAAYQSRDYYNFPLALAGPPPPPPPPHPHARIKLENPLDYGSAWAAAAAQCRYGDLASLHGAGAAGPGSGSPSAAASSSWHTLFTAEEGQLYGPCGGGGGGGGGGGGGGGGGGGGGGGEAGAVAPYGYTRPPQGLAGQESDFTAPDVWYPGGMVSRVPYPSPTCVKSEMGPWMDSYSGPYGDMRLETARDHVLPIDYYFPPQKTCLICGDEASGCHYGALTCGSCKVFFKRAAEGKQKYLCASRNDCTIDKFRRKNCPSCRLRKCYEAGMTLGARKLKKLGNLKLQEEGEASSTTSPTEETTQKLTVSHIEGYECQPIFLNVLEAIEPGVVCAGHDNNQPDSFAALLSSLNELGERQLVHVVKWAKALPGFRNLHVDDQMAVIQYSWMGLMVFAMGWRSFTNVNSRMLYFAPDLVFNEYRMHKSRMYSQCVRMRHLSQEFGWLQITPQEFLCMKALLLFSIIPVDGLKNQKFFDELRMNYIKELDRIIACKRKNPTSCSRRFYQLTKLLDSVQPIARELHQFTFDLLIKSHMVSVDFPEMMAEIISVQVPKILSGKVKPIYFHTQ
# [1] = human H295R adrenocortical carcinoma cells, overnight (16-19 h) with 17α-[21-3H]hydroxypregnenolone, 3H-acetic acid release, 1% DMSO, quadruplicates, read-out: CYP17 inhibition IC50
SMILES,"IC50 (17,20 lyase (CYP17)) [nM]",IC50 (full-length human AR) [nM],"IC50 (17,20 lyase (CYP17); [1]) [nM]"
"CCN(c1ccc(C#N)c(C(F)(F)F)c1)C1CCC=C(c2cncn2CC)C1 (single isomer, unassigned; isomer 4) [Ex. 208 1,5-isomer, 4-(ethyl(3-(1-ethyl-1H-imidazol-5-yl)cyclohex-3-en-1-yl)-amino)-2-(trifluoromethyl)benzonitrile]",137,34,
"CCN(c1ccc(C#N)c(C(F)(F)F)c1)C1C=C(n2ccnc2)CCC1 (stereo not shown) [Ex. 63, 4-((3-(1H-imidazol-1-yl)cyclohex-2-en-1-yl)(ethyl)amino)-2-(trifluoromethyl)benzonitrile]",70,34,
"CCCn1cncc1C1=CCC(N(CC)c2ccc(C#N)c(C(F)(F)F)c2)C1 (stereo not shown) [Ex. 103, 4-(Ethyl(3-(1-propyl-1H-imidazol-5-yl)cyclopent-3-en-1-yl)amino)-2-(trifluoromethyl)benzonitrile]",29,58,
"CCN(c1ccc(C#N)c(C(F)(F)F)c1)C1C=C(n2ccnc2)C2(CC1)CC2 (stereo not shown) [Ex. 107, 4-((4-(1H-imidazol-1-yl)spiro[2.5]oct-4-en-6-yl)(ethyl)amino)-2-(trifluoromethyl)benzonitrile]",33,51,
"CCN(c1ccc(C#N)c(C(F)(F)F)c1)[C@@H]1CCCN(c2ccncc2F)C1 [Ex. 160, (R)-4-(Ethyl(1-(3-fluoropyridin-4-yl)piperidin-3-yl)amino)-2-(trifluoromethyl)benzonitrile]",111,27,
"CN(c1ccc(C#N)c(C(F)(F)F)n1)C1C=C(n2ccnc2)CCC1(C)C (stereo not shown) [Ex. 250, 6-{[3-(1H-Imidazol-1-yl)-6,6-dimethylcyclohex-2-enyl](methyl)amino}-2-(trifluoromethyl)nicotinonitrile]",,205,27
"COc1cc(N(C)C2C=C(n3ccnc3)CCC2(C)C)ccc1C#N (stereo not shown) [Ex. 252, 4-{[3-(1H-Imidazol-1-yl)-6,6-dimethylcyclohex-2-enyl](methyl)amino}-2-methoxybenzonitrile]",,141,33
"CCN(c1ccc(C#N)c(C(F)(F)F)c1)C1CC=C(n2ccnc2)C1(C)C (stereo not shown) [Ex. 275, 4-((3-(1H-imidazol-1-yl)-2,2-dimethylcyclopent-3-en-1-yl)(ethyl)amino)-2-(trifluoromethyl)benzonitrile]",82,63,
